Laboratory results: BigSolDB 2.1

CCOc1ccc(C=O)cc1O
solubility (mole fraction)
Conditions	283.15 K	288.15 K	293.15 K	298.15 K	303.15 K	308.15 K	313.15 K	318.15 K	323.15 K
in THF	0.0523	0.0624	0.071	0.0842	0.094	0.108	0.123	0.138	0.156
in acetone	0.0425	0.0467	0.0515	0.057	0.0652	0.0718	0.0819	0.092	0.114
in acetonitrile	0.0105	0.0133	0.015	0.0191	0.0228	0.0285	0.0353	0.0406	0.0551
in ethanol	0.0066	0.0078	0.0101	0.012	0.0141	0.0179	0.0224	0.0276	0.0345
in ethyl acetate	0.0166	0.0194	0.0212	0.0259	0.0288	0.0361	0.0416	0.0511	0.0606
in ethyl formate	0.0135	0.0172	0.0196	0.0236	0.0278	0.0341	0.0415	0.0488	0.0605
in isopropanol	0.0035	0.005	0.0063	0.0082	0.01	0.0129	0.0168	0.0216	0.0277
in isopropyl acetate	0.013	0.0156	0.0187	0.0202	0.0227	0.0274	0.0325	0.0387	0.0457
in methanol	0.0072	0.0091	0.0119	0.0159	0.0206	0.0268	0.0362	0.0482	0.0635
in methyl acetate	0.0166	0.0205	0.0263	0.0301	0.0331	0.0409	0.048	0.0557	0.0678
in n-propanol	0.0048	0.0065	0.0077	0.0098	0.0118	0.0149	0.0194	0.0246	0.0312
in toluene	0.0032	0.0037	0.0042	0.0049	0.0057	0.0068	0.0077	0.0092	0.011
